Key:
Puccinia recondita = assay: Curative activity against Puccinia recondita on wheat (wheat leaf rust); type: in vivo; conditions: wheat seedlings "Kanzler", sprayed 1 day after infection, evaluated after 7 days
Experimental: (§1) Evaluation is carried out by determining the infected leaf areas in percent. These percentages are converted into efficacies. The efficacy (W) is calculated as follows using Abbot's formula: […]
(§2) α corresponds to the fungal infection of the treated plants in % and β corresponds to the fungal infection of the untreated (control) plants in % An efficacy of 0 means that the infection level of the treated plants corresponds to that of the untreated control plants; an efficacy of 100 means that the treated plants were not infected.
(§3) Colby formula: E=x+y−x·y/100
Curative Activity Against Puccinia recondita on Wheat (Wheat Leaf Rust) Leaves of potted wheat seedlings of the variety “Kanzler” were dusted with spores of leaf rust (Puccinia recondita). […] During this time, the spores germinated and the germinal tubes penetrated into the leaf tissue. […] After the spray coating had dried on, the test plants were cultivated in a greenhouse at from 20 to 22° C. and from 65 to 70% of relative atmospheric humidity for 7 days. Thereafter, the extent of rust fungus development on the leaves was determined.

[1] = system: Erysiphe graminis forma specialis tritici; assay: Activity against powdery mildew of wheat; type: in vivo; conditions: wheat seedlings "Kanzler", sprayed 24 hours before inoculation, evaluated after 7 days
Experimental: as §1, §2, §3
Activity Against Powdery Mildew of Wheat
The test plants were subsequently kept in a greenhouse at 20 to 24° C. and 60 to 90% relative atmospheric humidity. After 7 days, the extent of the mildew development was determined visually in % infection of the total leaf area.

Row | Compound | Efficacy in % of the untreated control (Puccinia recondita; 16 ppm in the spray liquor) [%] | Efficacy in % of the untreated control (Puccinia recondita; 63 ppm in the spray liquor) [%] | Efficacy in % of the untreated control ([1]; 4 ppm in the spray liquor) [%] | Efficacy in % of the untreated control ([1]; 16 ppm in the spray liquor) [%] | Efficacy in % of the untreated control ([1]; 1 ppm in the spray liquor) [%]
1 | O=C(Nc1ccccc1-c1ccc(F)cc1)c1cccnc1Cl [Compound I.1] | 0 | 0 | 0 | 0 | –
2 | O=C(Nc1ccccc1-c1ccc(Cl)cc1)c1cccnc1Cl [Compound I.2] | 0 | – | 0 | – | 0
3 | CC(Cc1ccc(C(C)(C)C)cc1)CN1C[C@@H](C)O[C@@H](C)C1 (stereo partly shown) [Compound IIa, fenpropimorph] | 20 | – | 20 | – | 0
4 | CC(Cc1ccc(C(C)(C)C)cc1)CN1CCCCC1 (stereo not shown) [Compound IIb, fenpropidin] | 20 | – | 30 | – | 0
5 | CCCCCCCCCCCCCN1CC(C)OC(C)C1 (stereo not shown) [Compound IIc, tridemorph] | – | 0 | 0 | 20 | –

— patent publication US6777411B1, “Fungicide mixtures based on pyride amides and morpholine derivatives or piperidine derivatives” (priority 1997, dated 2004)
